Source: US12011444B2, “N-substituted indole derivatives as PGE2 receptor modulators” (Idorsia Pharmaceuticals Ltd, priority 2015, dated 2024)

Experiments:
PTGER2 (EP2) = PTGER2 (EP2) (Homo sapiens (Human), UniProt P43116); assay: hEP2 b-arrestin assay (PathHunter HEK 293 PTGER2 b-arrestin cells); assay type: cell-based; conditions: hEP2 b-arrestin assay (values without asterisk)
Summary of the method: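 Readout is β-galactosidase complementation luminescence, expressed as percent of DMSO control (duplicates). PathHunter HEK293 EP2/β-arrestin 2 cells, grown 24 h, received compound for 15 min at 37 °C before a 120 min challenge with PGE2 at 5 μM final, followed by 1 h detection at room temperature.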

PTRGER4 (EP4) = PTRGER4 (EP4) (Homo sapiens (Human), UniProt P35408); assay: hEP4 b-arrestin assay (PathHunter HEK 293 PTGER4 b-arrestin cells); assay type: cell-based; conditions: hEP4 b-arrestin assay (values without asterisk)
Sequence of PTRGER4 (EP4) (P35408 whole entry, looked up, the tested form may be a part): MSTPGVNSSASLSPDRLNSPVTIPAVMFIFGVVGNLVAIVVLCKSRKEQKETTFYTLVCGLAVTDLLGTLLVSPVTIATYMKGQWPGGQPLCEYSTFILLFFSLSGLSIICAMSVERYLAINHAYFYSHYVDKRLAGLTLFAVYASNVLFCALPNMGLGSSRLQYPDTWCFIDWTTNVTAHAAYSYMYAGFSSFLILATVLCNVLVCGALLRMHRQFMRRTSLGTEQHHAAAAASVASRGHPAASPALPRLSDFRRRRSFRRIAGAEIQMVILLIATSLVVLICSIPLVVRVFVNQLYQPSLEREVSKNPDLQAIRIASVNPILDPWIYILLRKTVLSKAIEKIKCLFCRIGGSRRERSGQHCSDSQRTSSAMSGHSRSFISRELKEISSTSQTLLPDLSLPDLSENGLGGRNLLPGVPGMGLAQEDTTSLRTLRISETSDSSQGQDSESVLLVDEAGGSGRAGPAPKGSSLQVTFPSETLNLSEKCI
Summary of the method: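 Antagonist mode: compound is given 15 min at 37 °C, then 20 nM (final) PGE2 for 120 min, in HEK293 cells stably expressing EP4 fused to ProLink and β-arrestin 2 fused to EA. Recruitment read as β-gal luminescence after 1 h reagent at room temperature, as percent of DMSO control.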

Sequence of PTGER2 (EP2) (P43116 whole entry): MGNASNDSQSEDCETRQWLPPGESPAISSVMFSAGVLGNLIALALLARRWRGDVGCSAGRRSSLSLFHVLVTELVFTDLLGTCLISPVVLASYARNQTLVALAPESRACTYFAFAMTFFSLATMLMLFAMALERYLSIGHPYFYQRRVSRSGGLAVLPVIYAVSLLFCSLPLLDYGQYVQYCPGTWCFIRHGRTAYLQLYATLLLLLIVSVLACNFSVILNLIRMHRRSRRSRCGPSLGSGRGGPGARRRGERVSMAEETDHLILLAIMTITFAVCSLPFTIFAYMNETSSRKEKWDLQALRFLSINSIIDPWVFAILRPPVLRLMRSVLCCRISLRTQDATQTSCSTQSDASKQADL

Row | IC50 (PTGER2 (EP2)) | IC50 (PTRGER4 (EP4)) | Structure (SMILES)
1 | 41 nM | 123 nM | COc1cc(-c2cc(NCCn3c(C#N)cc4c(OC)ccc(F)c43)ncn2)ccn1 [Example 898, 7-Fluoro-4-methoxy-1-{2-[6-(2-methoxy-pyridin-4-yl)-pyrimidin-4-ylamino]-ethyl}-1H-indole-2-carbonitrile]
2 | 5 nM | 16 nM | CCOc1cc(-c2cc(NCCn3c(C#N)cc4c(OC)ccc(F)c43)ncn2)ccc1O [Example 899, 1-{2-[6-(3-Ethoxy-4-hydroxy-phenyl)-pyrimidin-4-ylamino]-ethyl)-7-fluoro-4-methoxy-1H-indole-2-carbonitrile]
3 | 26 nM | 22 nM | COc1ccc(F)c2c1cc(C#N)n2CCNc1cc(-c2ccc(C(N)=O)s2)ncn1 [Example 900, 5-{6-[2-(2-Cyano-7-fluoro-4-methoxy-indol-1-yl)-ethylamino]-pyrimidin-4-yl)-thiophene-2-carboxylic acid amide]
4 | 7 nM | 76 nM | N#Cc1cc2cccc(F)c2n1CCNc1cc(-c2cc(F)c(C(=O)O)s2)ncn1 [Example 901, 5-{6-[2-(2-Cyano-7-fluoro-indol-1-yl)-ethylamino]-pyrimidin-4-yl}-3-fluoro-thiophene-2-carboxylic acid]
5 | 3 nM | 8 nM | COc1cccc2c1cc(C#N)n2CCNc1cc(-c2cc(F)c(C(=O)O)s2)ncn1 [Example 902, 5-{6-[2-(2-Cyano-4-methoxy-indol-1-yl)-ethylamino]-pyrimidin-4-yl}-3-fluoro-thiophene-2-carboxylic acid]
6 | 4 nM | 69 nM | N#Cc1cc2c(Cl)cccc2n1CCNc1cc(-c2cc(F)c(C(=O)O)s2)ncn1 [Example 903, 5-{6-[2-(4-Chloro-2-cyano-indol-1-yl)-ethylamino]-pyrimidin-4-yl}-3-fluoro-thiophene-2-carboxylic acid]
7 | 1 nM | 49 nM | N#Cc1cc2c(Cl)cc(F)c(F)c2n1CCNc1cc(-c2cc(F)c(C(=O)O)s2)ncn1 [Example 904, 5-{6-[2-(4-Chloro-2-cyano-6,7-difluoro-indol-1-yl)-ethylamin0]-pyrimidin-4-yl}-3-fluoro-thiophene-2-carboxylic acid]
8 | 24 nM | 12 nM | CCCOc1cc(-c2cc(NCCn3c(C#N)cc4c(OC)ccc(F)c43)ncn2)cc(Cl)c1C(=O)O [Example 907, 2-Chloro-4-{6-[2-(2-cyano-7-fluoro-4-methoxy-indol-1-yl)-ethylamino]-pyrimidin-4-yl}-6-propoxy-benzoic acid]
9 | 17 nM | 33 nM | CCCOc1cc(-c2cc(NCCn3c(C#N)cc4c(OC)ccc(F)c43)ncn2)cc(F)c1C(=O)O [Example 908, 4-{6-[2-(2-Cyano-7-fluoro-4-methoxy-indol-1-yl)-ethylamino]-pyrimidin-4-yl}-2-fluoro-6-propoxy-benzoic acid]
10 | 3 nM | 14 nM | CCOc1cc(-c2cc(NCCn3c(C#N)cc4c(Cl)cccc43)ncn2)sc1C(=O)O [Example 909, 5-{6-[2-(4-Chloro-2-cyano-indol-1-yl)-ethylamino]-pyrimidin-4-yl}-3-ethoxy-thiophene-2-carboxylic acid]
11 | 23 nM | 10 nM | COc1cccc2c1cc(C#N)n2CCNc1cc(-c2cc(C(F)(F)F)c(C(=O)O)s2)ncn1 [Example 910, 5-{6-[2-(2-Cyano-4-methoxy-indol-1-yl)-ethylamino]-pyrimidin-4-yl}-3-trifluoromethyl-thiophene-2-carboxylic acid]
12 | 7 nM | 27 nM | N#Cc1cc2c(Cl)cccc2n1CCNc1cc(-c2cc(C(F)(F)F)c(C(=O)O)s2)ncn1 [Example 911, 5-{6-[2-(4-Chloro-2-cyano-indol-1-yl)-ethylamino]-pyrimidin-4-yl}-3-trifluoromethyl-thiophene-2-carboxylic acid]
13 | 4 nM | 29 nM | N#Cc1cc2c(Cl)cc(F)c(F)c2n1CCNc1cc(-c2cc(C(F)(F)F)c(C(=O)O)s2)ncn1 [Example 912, 5-{6-[2-(4-Chloro-2-cyano-6,7-difluoro-indol-1-yl)-ethylamino]pyrimidin-4-yl}-3-trifluoromethyl-thiophene-2-carboxylic acid]
14 | 32 nM | 68 nM | CCOc1cc(-c2cc(NCCn3c(C#N)cc4c(Cl)cc(F)c(F)c43)ncn2)ccc1OCC(=O)O [Example 914, (4-{6-[2-(4-Chloro-2-cyano-6,7-difluoro-indol-1-yl)-ethylamino]-pyrimidin-4-yl}-2-ethoxy-phenoxy)-acetic acid]
15 | 12 nM | 27 nM | CCOc1cc(-c2cc(NCCn3c(C#N)cc4c(Cl)cccc43)ncn2)ccc1NCC(=O)O [Example 915, (4-{6-[2-(4-Chloro-2-cyano-indol-1-yl)-ethylamino]-pyrimidin-4-yl}-2-ethoxy-phenylamino)-acetic acid]
16 | 20 nM | 18 nM | CCOc1cc(-c2cc(NCCn3c(C#N)cc4c(Cl)cc(F)c(F)c43)ncn2)ccc1NCC(=O)O [Example 916, (4-{6-[2-(4-Chloro-2-cyano-6,7-difluoro-indol-1-yl)-ethylamino]-pyrimidin-4-yl}-2-ethoxy-phenylamino)-acetic acid]
17 | 24 nM | 35 nM | COc1ccc(F)c2c1cc(C#N)n2CCNc1cc(-c2ccc(C(=O)O)c(OC(F)F)c2)ncn1 [Example 917, 4-{6-[2-(2-Cyano-7-fluoro-4-methoxy-indol-1-yl)-ethylamino]-pyrimidin-4-yl}-2-difluoromethoxy-benzoic acid]
18 | 26 nM | 73 nM | COc1n[nH]c2cc(-c3cc(NCCn4c(C#N)cc5c(OC)ccc(F)c54)ncn3)ccc12 [Example 918, 7-Fluoro-4-methoxy-1-{2-[6-(3-methoxy-1H-indazol-6-yl)-pyrimidin-4-ylamino]-ethyl}-1H-indole-2-carbonitrile]
19 | 10 nM | 3 nM | COc1ccc(F)c2c1cc(C#N)n2CCNc1cc(-c2ccc3c(c2)N(C)C(=O)NC3)ncn1 [Example 919, 7-Fluoro-4-methoxy-1-{2-[6-(1-methyl-2-oxo-1,2,3,4-tetrahydro-quinazolin-7-yl)-pyrimidin-4-ylamino]-ethyl}-1H-indole-2-carbonitrile]
20 | 39 nM | 68 nM | COc1ccc(F)c2c1cc(C#N)n2CCNc1cc(-c2ccc3c(=O)n(C)[nH]c3c2)ncn1 [Example 920, 7-Fluoro-4-methoxy-1-{2-[6-(2-methyl-3-oxo-2,3-dihydro-1H-indazol-6-yl)-pyrimidin-4-ylamino]-ethyl}-1H-indole-2-carbonitrile]
21 | 6 nM | 9 nM | COc1ccc(F)c2c1cc(C#N)n2CCNc1cc(-c2ccc3c(=O)[nH]n(C)c3c2)ncn1 [Example 921, 7-Fluoro-4-methoxy-1-{2-[6-(1-methyl-3-oxo-2,3-dihydro-1H-indazol-6-yl)-pyrimidin-4-ylamino]-ethyl}-1H-indole-2-carbonitrile]
22 | 19 nM | 19 nM | CCSc1cc(C(=O)O)cc(-c2cc(NCCn3c(C#N)cc4c(OC)ccc(F)c43)ncn2)c1 [Example 922, 3-{6-[2-(2-Cyano-7-fluoro-4-methoxy-indol-1-yl)-ethylamino]-pyrimidin-4-yl}-5-ethylsulfanyl-benzoic acid]
23 | 20 nM | 42 nM | COc1ccc(F)c2c1cc(C#N)n2CCNc1cc(-c2ccc(-c3cnn[nH]3)cc2)ncn1 [Example 923, 7-Fluoro-4-methoxy-1-(2-{6-[4-(3H-[1,2,3]triazol-4-yl)-phenyl]-pyrimidin-4-ylamino}-ethyl)-1H-indole-2-carbonitrile]
24 | 224 nM | 308 nM | CCOc1cc(-c2cc(NCCn3c(C#N)cc4c(OC)ccc(F)c43)ncn2)ccc1CCC(=O)O [Example 924, 3-(4-{6-[2-(2-Cyano-7-fluoro-4-methoxy-indol-1-yl)-ethylamino]-pyrimidin-4-yl}-2-ethoxy-phenyl)-propionic acid]
25 | 4 nM | 20 nM | CCOc1cc(OCCC(=O)O)cc(-c2cc(NCCn3c(C#N)cc4c(OC)ccc(F)c43)ncn2)c1 [Example 926, 3-(3-{6-[2-(2-Cyano-7-fluoro-4-methoxy-indol-1-yl)-ethylamino]-pyrimidin-4-yl}-5-ethoxy-phenoxy)-propionic acid]
26 | 31 nM | 3 nM | CCOc1cc(-c2cc(NCCn3c(C#N)cc4c(OC)ccc(F)c43)ncn2)ccc1OCCC(=O)O [Example 927, 3-(4-{6-[2-(2-Cyano-7-fluoro-4-methoxy-indol-1-yl)-ethylamino]-pyrimidin-4-yl}-2-ethoxy-phenoxy)-propionic acid]

Row | Structure (SMILES) | IC50 (PTGER2 (EP2)) | IC50 (PTRGER4 (EP4))
27 | CCCCOc1cc(-c2cc(NCCn3c(C#N)cc4c(OC)ccc(F)c43)ncn2)cc(F)c1C(=O)O [Example 905, 2-Butoxy-4-{6-[2-(2-cyano-7-fluoro-4-methoxy-indol-1-yl)-ethylamino]-pyrimidin-4-yl}-6-fluoro-benzoic acid] | 22 nM | 5 nM
28 | CCCCOc1cc(-c2cc(NCCn3c(C#N)cc4c(OC)ccc(F)c43)ncn2)cc(Cl)c1C(=O)O [Example 906, 2-Butoxy-6-chloro-4-{6-[2-(2-cyano-7-fluoro-4-methoxy-indol-1-yl)-ethylamino]-pyrimidin-4-yl}-benzoic acid] | 30 nM | 3 nM
29 | COc1ccc(F)c2c1cc(C#N)n2CCNc1cc(-c2cc(Cl)c(C(=O)O)c(OCC(C)C)c2)ncn1 [Example 913, 2-Chloro-4-{6-[2-(2-cyano-7-fluoro-4-methoxy-indol-1-yl)-ethylamino]-pyrimidin-4-yl}-6-isobutoxy-benzoic acid] | 13 nM | 5 nM
